Data: publication PMC4010452, “Modulation of Mouse Embryonic Stem Cell Proliferation and Neural Differentiation by the P2X7 Receptor” (PLoS ONE, 2014)

Target: T1, P2X7 receptor (Mus musculus, UniProt Q9Z1M0)
T1 construct: gene P2rx7
T1 sequence (Q9Z1M0 1-595): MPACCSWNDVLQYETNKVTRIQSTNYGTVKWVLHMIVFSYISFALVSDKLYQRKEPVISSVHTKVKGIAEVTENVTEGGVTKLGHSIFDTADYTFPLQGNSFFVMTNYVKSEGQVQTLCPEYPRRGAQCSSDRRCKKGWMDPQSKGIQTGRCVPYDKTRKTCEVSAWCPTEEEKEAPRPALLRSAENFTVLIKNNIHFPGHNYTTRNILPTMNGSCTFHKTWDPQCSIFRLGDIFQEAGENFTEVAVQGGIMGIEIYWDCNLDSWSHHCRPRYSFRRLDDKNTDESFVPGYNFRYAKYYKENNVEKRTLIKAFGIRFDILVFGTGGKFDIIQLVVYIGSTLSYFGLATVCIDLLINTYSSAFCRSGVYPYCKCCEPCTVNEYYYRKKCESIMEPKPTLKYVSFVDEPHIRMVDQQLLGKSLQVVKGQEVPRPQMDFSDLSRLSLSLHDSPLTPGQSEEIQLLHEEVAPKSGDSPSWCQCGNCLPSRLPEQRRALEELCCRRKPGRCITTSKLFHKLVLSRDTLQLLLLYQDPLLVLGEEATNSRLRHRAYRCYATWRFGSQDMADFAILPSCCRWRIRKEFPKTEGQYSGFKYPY
Assay: agonist-induced intracellular calcium microfluorimetry and single-cell calcium imaging in mouse E14Tg2A ES cells (native receptor)
Type: cell-based

SMILES: Nc1ncnc2c1ncn2[C@@H]1O[C@H](COP(=O)(O)OP(=O)(O)OP(=O)(O)O)[C@@H](O)[C@H]1O [ATP]
- EC50: 4.1 ± 1.8 µM
